Experimental data from ChEMBL document CHEMBL1201862, “PubChem BioAssay data set” (2004).
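Growth conditions: 96-well plates. Treatment: test compound, 48 hours, 5 concentrations. Analysis: linear interpolation between bracketing concentrations; unreached endpoints set to highest concentration. The concentration for 50% growth inhibition is given as GI50.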 The source made the active and inactive calls. Cut-off read from the data, not from the text of the source: active = GI50 up to about 1.1 µM and inactive = higher.

How the values were obtained:
Test in all cases: NCI-60 cell line screen, 48 h
SNB-75 = test system: SNB-75
SK-OV-3 = test system: SK-OV-3
HCT-116 = test system: HCT-116
SF-539 = test system: SF-539
SW-620 = test system: SW-620
NCI-H460 = test system: NCI-H460
HT-29 = test system: HT-29
SR = test system: SR
SF-268 = test system: SF-268
HOP-92 = test system: HOP-92
OVCAR-8 = test system: OVCAR-8
HCT-15 = test system: HCT-15
SK-MEL-28 = test system: SK-MEL-28
SK-MEL-2 = test system: SK-MEL-2
EKVX = test system: EKVX
K562 = test system: K562
UO-31 = test system: UO-31
OVCAR-5 = test system: OVCAR-5
A498 = test system: A498

Structure (SMILES)	GI50 (SNB-75)	GI50 (SK-OV-3)	GI50 (HCT-116)	GI50 (SF-539)	GI50 (SW-620)	GI50 (NCI-H460)	GI50 (HT-29)	GI50 (SR)	GI50 (SF-268)	GI50 (HOP-92)	GI50 (OVCAR-8)	GI50 (HCT-15) [µM]	GI50 (SK-MEL-28)	GI50 (SK-MEL-2)	GI50 (EKVX)	GI50 (K562)	GI50 (UO-31)	GI50 (OVCAR-5)	GI50 (A498)
Cc1cccc2c1nc1n2C(=O)c2ccccc2-1	> 100 µM (inactive)	> 100 µM (inactive)	> 100 µM (inactive)	> 100 µM (inactive)	> 100 µM (inactive)	> 100 µM (inactive)	> 100 µM (inactive)	> 100 µM (inactive)	> 100 µM (inactive)	> 100 µM (inactive)	> 100 µM (inactive)	> 100	> 100 µM (inactive)	> 100 µM (inactive)	> 100 µM (inactive)	> 100 µM (inactive)	> 100 µM (inactive)	> 100 µM (inactive)	–
Cc1ccc2c(c1)-c1c3c(nn1-c1ccccc1)-c1ccccc1SC3O2 (centres undefined)	> 100 µM (inactive)	> 100 µM (inactive)	> 100 µM (inactive)	> 100 µM (inactive)	> 100 µM (inactive)	> 100 µM (inactive)	> 100 µM (inactive)	–	> 100 µM (inactive)	> 100 µM (inactive)	> 100 µM (inactive)	–	> 100 µM (inactive)	> 100 µM (inactive)	> 100 µM (inactive)	> 100 µM (inactive)	> 100 µM (inactive)	97.1 µM (inactive)	> 100 µM (inactive)
COc1ccc(S(=O)(=O)N[C@H](C(=O)O)c2ccccc2)cc1	> 100 µM (inactive)	> 100 µM (inactive)	> 100 µM (inactive)	> 100 µM (inactive)	> 100 µM (inactive)	> 100 µM (inactive)	> 100 µM (inactive)	–	> 100 µM (inactive)	–	> 100 µM (inactive)	> 100	> 100 µM (inactive)	> 100 µM (inactive)	> 100 µM (inactive)	> 100 µM (inactive)	> 100 µM (inactive)	> 100 µM (inactive)	–
Cc1cc(C)c(-c2noc(-c3ccc(Cl)cc3)c2C2=NCCN2)c(C)c1	17.1 µM (inactive)	13.7 µM (inactive)	12.1 µM (inactive)	16.8 µM (inactive)	32.4 µM (inactive)	13.8 µM (inactive)	13.3 µM (inactive)	16.4 µM (inactive)	17.3 µM (inactive)	–	> 10 µM (inactive)	22.2	17.7 µM (inactive)	22.6 µM (inactive)	22.9 µM (inactive)	14.8 µM (inactive)	6.38 µM (inactive)	32.1 µM (inactive)	–
CCOC(=O)C(=O)Nc1ccc(C)cc1C	–	> 100 µM (inactive)	> 100 µM (inactive)	> 100 µM (inactive)	> 100 µM (inactive)	> 100 µM (inactive)	> 100 µM (inactive)	> 100 µM (inactive)	> 100 µM (inactive)	> 100 µM (inactive)	> 100 µM (inactive)	> 100	> 100 µM (inactive)	> 100 µM (inactive)	> 100 µM (inactive)	> 100 µM (inactive)	> 100 µM (inactive)	> 100 µM (inactive)	–
CC(C)c1cc2c(O)c(c1)Cc1cc(C(C)C)cc(c1O)Cc1cc(C(C)C)cc(c1O)Cc1cc(C(C)C)cc(c1O)Cc1cc(C(C)C)cc(c1O)Cc1cc(C(C)C)cc(c1O)C2	24.9 µM (inactive)	–	> 100 µM (inactive)	> 100 µM (inactive)	> 100 µM (inactive)	> 100 µM (inactive)	> 100 µM (inactive)	–	> 100 µM (inactive)	> 100 µM (inactive)	> 100 µM (inactive)	> 100	> 100 µM (inactive)	> 100 µM (inactive)	> 100 µM (inactive)	> 100 µM (inactive)	> 100 µM (inactive)	> 100 µM (inactive)	–
CC1OC(OP(=O)(OCc2ccccc2)OCc2ccccc2)C(OC(=O)c2ccccc2)C(OC(=O)c2ccccc2)C1I (centres undefined)	9.31 µM (inactive)	> 100 µM (inactive)	28.1 µM (inactive)	–	72.8 µM (inactive)	34 µM (inactive)	42.9 µM (inactive)	17.5 µM (inactive)	52.2 µM (inactive)	–	98.4 µM (inactive)	45.9	86.7 µM (inactive)	23.8 µM (inactive)	40.9 µM (inactive)	29.3 µM (inactive)	27.4 µM (inactive)	98.6 µM (inactive)	–
CCCCS(=O)(=O)CCC(N)P(=O)(O)O (centres undefined)	> 100 µM (inactive)	> 100 µM (inactive)	> 100 µM (inactive)	–	> 100 µM (inactive)	> 100 µM (inactive)	> 100 µM (inactive)	> 100 µM (inactive)	> 100 µM (inactive)	> 100 µM (inactive)	> 100 µM (inactive)	> 100	> 100 µM (inactive)	> 100 µM (inactive)	> 100 µM (inactive)	> 100 µM (inactive)	> 100 µM (inactive)	> 100 µM (inactive)	–
